Read-outs that look alike come from different tables or passages of the source.
Key:
[1] = Storage stability at room temperature; format: physicochemical; settings: data not shown
24-h urinary recovery = format: in vivo; settings: female, F344, rat, urine, po, 300 μmol/kg, single oral dose 300 μmol/kg
Procedure: Measurement of pharmacokinetic profiles of AITC and NAC-AITC. The experiment was carried out in female F344 rats since these animals were used in the rat bladder cancer model described above. Groups of three to five rats (8-9 weeks of age) were given a single oral dose of AITC, NAC-AITC or vehicles. AITC was administered in 0.5 ml of soy oil per rat, whereas NACAITC was dissolved in DMSO and diluted with water and administered in 0.2 ml volume (5% DMSO) per rat. The rats were immediately transferred to metabolism cages (one rat per cage), with free access to food and water, for urine collection over four consecutive periods of 0-1.5, 1.5-3, 3-6 and 6-24 h. […]
(§1) AITC and NAC-AITC contents in the plasma and urine were determined using the high-performance liquid chromatography (HPLC)-based cyclocondensation assay, and are expressed as AITC equivalent or NAC-AITC equivalent. […]
To specifically measure urinary levels of NAC-AITC, groups of five rats were dosed orally with either AITC or NAC-AITC at 300 μmol/kg and immediately moved to metabolism cages (one rat per cage) for 24 h urine collection. […] The compounds were monitored at both 230 nm (AITC) and 254 nm (its metabolites). […] The fraction corresponding to NAC-AITC was collected and quantified by the cyclocondensation assay; its identity was confirmed by infusion electrospray ionization mass spectrometry.

tubulin = experiment: Tubulin polymerization in vitro assay; format: biochemical; settings: result not shown
UM-UC-3 cells [2] = experiment: Mitochondria-mediated apoptosis in UM-UC-3 cells (Δψm, cytochrome c, TUNEL); format: cell-based, human
Procedure: (§2) FIG. 4. Effect of AITC on mitosis, tubulin expression and apoptosis in human bladder cancer UM-UC-3 cells. Cells were treated with vehicle or AITC for 24 h (each numerical value is mean±SD). A. Flow cytometry analysis for cell cycle arrest. B. Wright-Giemsa staining for counting mitotic figures. Arrows point to cells in mitosis or mitotic catastrophe. C. Immunofluorescent staining of microtubules (green color) and DNA staining with DAPI (blue color). D. Western blotting of tubulins (GAPDH as a loading control). E. Loss of mitochondrial transmembrane potential (Δψm) measured by flow cytometry. F. Western blotting of caspase-9 and caspase-3 (GAPDH as a loading control). G. Apoptotic cells (TUNEL cells) measured by flow cytometry. Cells in F and G were co-treated with or without 20 microM Z-LEHD-FMK (a caspase-9 inhibitor).

UM-UC-3 cells [3] = experiment: Wright-Giemsa staining for mitotic figures, UM-UC-3 cells; format: cell-based, human; settings: 24 h, compared with G2/M by flow cytometry
Procedure: as §2

[4] = female, F344, rat, in vivo
Procedure: FIG. 7. Pharmacokinetics of AITC in F344 rats. A & B. Five groups of 4-6 female rats were administered a single oral dose of AITC at 10 or 300 micromols/kg and then kept in metabolism cages for urine collection (1 rat/cage) for 1.5, 3, 6, 12 and 24 h. At the end of each time period, blood was drawn from one group of rats, from which plasma was prepared. C. Rats bearing orthotopic bladder tumors, 3 weeks after AY-27 cell inoculation, were administered a single oral dose of AITC at 300 micromols/kg. Orthotopic tumors were removed from the rats at 0 h (T1), 1.5 h (T2), and 6 h (T3) after AITC dosing. Concentrations of AITC equivalent in plasma, urine and tumor tissue homogenates were determined by the cyclocondensation assay developed in our lab. Each value is a mean±SE.
Rats were administered a single oral dose of AITC at 10 or 300 micromols/kg, and urine and blood were collected at several time intervals up to 24 h. Cyclocondensation assay was used for measurement of AITC equivalent in the samples [12]. Oral administration of AITC led to dose-dependent increase in the levels of AITC equivalent in both plasma and urine (FIGS. 7A & 7B). […]
as §1

stability when kept dry [1]	dose excreted (24-h urinary recovery; HPLC fraction, read-out: 24-h urinary recovery, Recovered as NAC-AITC, % of adminstered dose) [%]	dose excreted (24-h urinary recovery; read-out: 24-h urinary recovery, Recovered as NAC-AITC, % of total recovery) [%]	Structure (SMILES)	rate of tubulin polymerization (tubulin)	TUNEL-positive cells (UM-UC-3 cells [2]; 24 h, flow cytometry)	mitochondrial transmembrane potential (UM-UC-3 cells [2]; 24 h, flow cytometry)	cytochrome c release (UM-UC-3 cells [2]; result not shown)	arrest in mitosis (UM-UC-3 cells [3])	average 24-h urinary concentration as % of peak urinary concentration [4]	average 24-h urinary concentration relative to plasma concentration at 24 h [4]
at least 16 months	47.3 ± 1.8	83.3	C=CCNC(=S)SC[C@H](NC(C)=O)C(=O)O [NAC-AITC, N-acetyl-S—(N-allylthiocarbamoyl)cysteine]	–	–	–	–	–	–	–
–	–	–	C=CCN=C=S [AITC, allyl isothiocyanate]	no effect	formation of TUNEL-positive cells	caused a loss of mitochondrial transmembrane potential	release of cytochrome c from mitochondria to cytoplasm	arrested cells almost exclusively in mitosis	11.6-45.2%	4,911-14,501 fold higher
